Reference: patent US6235769A, “Methods of preventing and treating neurological disorders with compounds that modulate the function of the C-RET receptor protein tyrosine kinase” (Sugen, Inc., priority 1998, dated 2001)

Columns and labels:
Format in all cases: cell-based
FLK-1 receptor = assay: FLK-1 ELISA, catalytic activity of the FLK-1 receptor in FLK-1/NIH3T3 cells; settings: concentration that yielded a two-hundred percent increase in catalytic activity in the FLK-1 ELISA
Experimental: An enzyme linked immunosorbant assay (ELISA) can be conducted to measure the catalytic activity of the FLK-1 receptor and more specifically, the inhibition or activation of indolinone compounds of the catalytic activity of the FLK-1 receptor. The following assay was conducted to measure catalytic activity of the FLK-1 receptor in FLK-l/NIH3T3 cells.
One skilled in the art can adapt such a procedure to other receptor tyrosine protein kinases to identify compounds that modulate the function of the receptor.
This type of assay can be developed for nearly any RPTK using well known techniques utilized by persons of ordinary skill in the art. The FLK-1/NIH3T3 cell lines are also created by techniques well known to those skilled in the art. The NIH3T3 cells were stably transfected with gene constructs containing the FLK-1 gene. The nucleic acid vectors used for this type of procedure are commonly and commercially available to those skilled in the art. The methods of cloning the genes of interest into these nucleic acid vectors and the methods of transfecting these nucleic acid constructs into cells are also well known to those skilled in the art. Sambrook, Fritsch, Maniatis, Molecular Cloning, A Laboratory Manual 2nd Ed., Cold Spring Harbor Laboratory Press, 1989.
1. Coat Corning 96-well ELISA plates with 1.0 μg per well Cappel Anti-rabbit IgG antibody in 0.1 M Na2 CO3 pH 9.6. Bring final volume to 150 μL per well. Coat plates overnight at 4° C. Plates can be kept up to two weeks when stored at 4° C.
2. Grow cells in Growth media (DMEM, supplemental with 2.0 mM L-Glutamine, 10% FBS) in suitable culture dishes until confluent at 37° C., 5% CO2.
3. Harvest cells by trypsinization and seed in Corning 25850 polystyrene 96-well roundbottom cell plates, 25.000 cells/well in 200 μL of growth media.
4. Grow cells at least one day at 37° C., 5% CO2.
5. Wash cells with D-PBS 1×.
6. Add 200 μL/well of starvation media (DMEM, 2.0 mM 1-Glutamine, 0.1% FBS). Incubate overnight at 37° C., 5% CO2.
7. Dilute Compounds/Extracts 1:20 in polypropylene 96 well plates using starvation media. Dilute dimethylsulfoxide 1:20 for use in control wells.
8. Remove starvation media from 96 well cell culture plates and add 162 μL of fresh starvation media to each well.
9. Add 18 μL of 1:20 diluted Compound/Extract dilution (from step 7) to each well plus the 1:20 dimethylsulfoxide dilution to the control wells (+/-VEGF), for a final dilution of 1:200 after cell stimulation. Final dimethylsulfoxide is 0.5%. Incubate the plate at 37° C., 5% CO2 for two hours.
10. Remove unbound antibody from ELISA plates by inverting plate to remove liquid. Wash 3 times with TBSW+0.5% ethanolamine, pH 7.0. Pat the plate on a paper towel to remove excess liquid and bubbles.
11. Block plates with TBSW+0.5% Ethanolamine, pH 7.0, 150 μL per well. Incubate plate thirty minutes while shaking on a microtiter plate shaker.
12. Wash plate 3 times as described in step 10.
13. Add 0.5 μg/well affinity purified […] polyclonal rabbit antiserum. Bring final volume to 150 μL/well with TBSW+0.5% ethanolamine pH 7.0. Incubate plate for thirty minutes while shaking.
14. Add 180 μL starvation medium to the cells and stimulate cells with 20 μL/well 10.0 mM sodium ortho vanadate and 500 ng/mL VEGF (resulting in a final concentration of 1.0 mM sodium ortho vanadate and 50 ng/mL VEGF per well) for eight minutes at 37° C., 5% CO2. Negative control wells receive only starvation medium.
15. After eight minutes, media should be removed from the cells and washed one time with 200 μL/well PBS.
16. Lyse cells in 150 μL/well HNTG while shaking at room temperature for five minutes. HNTG formulation includes sodium ortho vanadate, sodium pyro phosphate and EDTA.
17. Wash ELISA plate three times as described in step 10.
18. Transfer cell lysates from the cell plate to ELISA plate and incubate while shaking for two hours. To transfer cell lysate pipette up and down while scrapping the wells.
19. […]

chicken trkA receptor = assay: Receptor phosphorylation in cells expressing both rat and chicken trkA, chick receptor; settings: NGF or CTA
Experimental: (§1) The assumption was tested by expressing both rat and chicken trkA receptors in the same cell and activating them with either neurotrophic growth factor (NGF), which binds both receptors, or with the CTA antibody, which binds only the chick receptor. […] The effects of the CTA antibody preparation were therefore not attributable to activation of endogenous trkA receptors.
(§2) The conditions for immunoprecipitation and immunoblotting used in the experiments were described previously (Clary et al., 1994, Mol. Biol. Cell 5: 549-563) with modifications as follows. Immunoblots were performed in Tris-buffered saline containing 0.1% Triton X-100, and filter blocking and antibody incubations were performed in the same buffer with 1% BSA. In other experiments, anti-phosphotyrosine detection was performed with biotinylated-4G10 monoclonal antibody followed by a peroxidase avidin-biotin complex. Other antibodies were detected with peroxidase coupled anti-mouse IgG, anti-rabbit IgG, or protein A as indicated. All peroxidase conjugates were detected using a chemiluminescence protocol (Pierce Chemical Co. Rockford, Ill.).

rat trkA receptor = assay: Receptor phosphorylation in cells expressing both rat and chicken trkA, rat receptor
Experimental: as §1, §2

[1] = test system: c-ret chimera (human C-RET transmembrane and cytoplasmic domains fused to chicken TRKA extracellular domain); assay: Chimeric receptor activation in infected C6 glioma cells (anti-phosphotyrosine immunoblot), c-ret chimera; settings: 50 ng/mL NGF, five minutes
Experimental: (§3) DNA constructs were generated, which encoded the transmembrane and cytoplasmic domains from human MCK-10, C-RET, mouse SEK, and rat TRKA fused to the chicken TRKA extracellular domain. These chimeric receptor constructs were then inserted into the adenovirus transfer vector, and recombinant viruses were generated and purified. Rat C6 glioma cells were infected with the recombinant viruses, and the resulting chimeric receptors were analyzed via immunoblot analysis.
(§4) The ability to activate the chimeras was evaluated by incubating the infected C6 monolayers with 50 ng/mL NGF for five minutes. The receptors were immunoprecipitated with the CTA antibody, immunoblotted, and probed either with the anti-phosphotyrosine antibody 4G10 or with the CTA antibody preparation.
(§5) C6 glioma cells were grown in Ham's Flo medium containing 10% fetal calf serum; for receptor activation experiments the medium was changed to 0.5% fetal calf serum 12 hours prior to stimulation.

[2] = test system: sek chimera (mouse SEK transmembrane and cytoplasmic domains fused to chicken TRKA extracellular domain); assay: Chimeric receptor activation in infected C6 glioma cells (anti-phosphotyrosine immunoblot), sek chimera; settings: 50 ng/mL NGF, five minutes
Experimental: as §3, §4, §5

[3] = test system: MCK-10 chimera (human MCK-10 transmembrane and cytoplasmic domains fused to chicken TRKA extracellular domain); assay: Chimeric receptor activation in infected C6 glioma cells (anti-phosphotyrosine immunoblot), MCK-10 chimera; settings: 50 ng/mL NGF, before or after incubation
Experimental: as §3, §4, §5

Molecule | EC200 (FLK-1 receptor) [µM] | further results
CCc1cc(CC)c(/C=C2\C(=O)Nc3ccc(C(=O)O)cc32)[nH]1 [Indolinone 2] | 2.8 | –
Cc1ccc(/C=C2\C(=O)Nc3ccc(CCC(=O)O)cc32)s1 [Indolinone 5] | > 100 | –
Cc1cc(C)c(/C=C2\C(=O)Nc3ccc(CCC(=O)O)cc32)[nH]1 [Indolinone 3] | 32 | –
NGF: nerve growth factor, which binds to the extracellular region of the TRK receptor | – | phosphorylation of the chick receptor (chicken trkA receptor): became phosphorylated; activation of the rat receptor (rat trkA receptor): activation of the rat receptor was detected only after NGF addition; activation of c-ret chimera [1]: NGF-dependent activation of the c-ret and sek chimeras was detected; activation of sek chimera [2]: NGF-dependent activation of the c-ret and sek chimeras was detected; phosphotyrosine of MCK-10 chimeric protein [3]: Phosphotyrosine was not detected
Cc1ccc(/C=C2\C(=O)Nc3ccc(C(=O)O)cc32)s1 [Indolinone 6] | 46 | –
Cc1cc(C)c(/C=C2\C(=O)Nc3ccc(C(=O)O)cc32)[nH]1 [Indolinone 4] | 2.8 | –
CC(C)c1cc(C(C)C)c(/C=C2\C(=O)Nc3ccc(C(=O)O)cc32)[nH]1 [Indolinone 1] | 10 | –
